Test results published in US11000511B2, “Chemical compounds as antibiotics” (priority 2017, dated 2021).

How the values were obtained:
[1] = molecular target: T1, LasB elastase activity in dialysed supernatant from P. aeruginosa strain PA01 (Pseudomonas aeruginosa, UniProt P14756); experiment: Elastin Congo Red assay to determine % inhibition (Assay 2); format: biochemical; conditions: read-out: Elastin hydrolysis % inhibition @ 50/25 μM inhibitor concentration Assay 2
T1 construct: uses as source of enzyme dialysed supernatant from P. aeruginosa; endogenous in cells; host or cells: P. aeruginosa strain PA01 culture supernatant, filtered and dialysed
Method: (§1) Experiments were therefore conducted (1) to measure the potency of inhibition of compounds of the invention against purified Pseudomonas aeruginosa LasB enzyme and also experiments were conducted (2) to measure the ability of compounds of the invention to inhibit LasB-catalysed elastin degradation. The first assay uses a commercial fluorescent synthetic peptide and purified LasB enzyme. The LasB hydrolysis kinetics are measured allowing the determination of the IC50 and Ki of the inhibitors; the second is a more physiological assay using dialysed Pseudomonas aeruginosa supernatant as source of enzyme, plus its natural substrate Elastin. It is an “end point assay” that determines the percentage of LasB inhibition by each compound for one particular time point and inhibitor concentration. Technical details are described below:
The Elastin assay uses as source of enzyme dialysed supernatant from P. aeruginosa and the elastin congo red as substrate. The natural LasB substrate, elastin, is complexed with the congo red dye (Elastin Congo Red, ECR). The elastolysis activity from the culture supernatant will degrade elastin and release the congo red dye into the supernatant. This red dye release can be measured with a spectrophotometer. Some compounds of Formula (I) were assessed using the method of Assay 1 (described below). Other compounds of Formula (I) were assessed using the alternative but equivalent method of Assay 2 (described below).
Method (Assay 2): To determine LasB elastase activity and assess compound inhibition, an overnight culture of P. aeruginosa strain PA01 is diluted in LB medium. After reaching an OD600 nm of 0.6, this culture is diluted and incubated for additional 18-24 h in a shaking incubator. Culture supernatants are recovered by centrifugation and filtrated through a […] filter. These supernatants are dialysed (filtration molecules <20 kDa) into a 50 mM Tris-HCl pH 7.4, 2.5 mM CaCl2 solution at 4° C. under agitation for 24 h. Supernatant dialysed is then mixed volume/volume with the ECR suspension (20 mg/mL of ECR in 100 mM Tris-HCl pH 7.4 buffer supplemented with 1 mM CaCl2) supplemented with TritonX 100 (final concentration of 0.01%) in presence of DMSO (positive control) and/or different concentrations of compound (routinely […]). As a negative control, the dialysed supernatant is replaced by Tris-HCl solution (50 mM Tris-HCl pH 7.4, 2.5 mM CaCl2). The mixed reaction is then incubated overnight in a 37° C. shaking incubator. The reaction supernatant is recovered by centrifugation and the release of congo-red is measured by its absorbance at 495 nm (OD495 nm).
Percentage inhibition is determined using the following equation: ((OD495 nm value of positive control−OD495 nm value of negative control)−(OD495 nm value of treated supernatant−OD495 nm value of negative control))/(OD495 nm value of positive control−OD495 nm value of negative control)×100.

[2] = molecular target: T2, purified LasB protein from P. aeruginosa (Pseudomonas aeruginosa, UniProt P14756); experiment: Fluorometric assay to determine Ki (Assay 2); format: biochemical
T2 construct: purchased Merck or Charles River Laboratories
Method: as §1
This assay uses commercially available substrate (Abz-Ala-Gly-Leu-Ala-p-Nitro-Benzyl-Amide (Ex: 340 nm, Em: 415 nm) from Peptide International) and purified LasB protein from P. aeruginosa (provided by Merck or Charles River Laboratories). It is performed to determine LasB elastase activity and assess compound inhibition in 96-well plate format. Some compounds of Formula (I) were assessed using the method of Assay 1 (described below). Other compounds of Formula (I) were assessed using the alternative but equivalent method of Assay 2 (described below).
Method: 10 to 140 ng/ml purified LasB is incubated with 250 μM Abz-Ala-Gly-Leu-Ala-p-Nitro-Benzyl-Amide in 50 mM Tris-HCl pH 7.4, 2.5 mM CaCl2), 0.01% of Triton X100 at 37° C. LasB activity (corresponding to fluorescence emission induced by substrate hydrolysis) is measured over 30 min at 37° C. with a fluorescence plate reader such as the Perkin Elmer Envision or similar. Different range of inhibitor concentrations are routinely assessed depending of inhibitor potency from 0.006 to 200 μM (Assay 1; 2-fold dilutions series) or from 0.0016 to 200 μM (Assay 2; 2-fold dilutions series) in order to determine IC50.
The equation used to calculate the Ki from IC50 is: Ki=IC50/(1+([S]/Km)) where [S]=250 μM and Km=214 μM.

T1 sequence (P14756 198-498): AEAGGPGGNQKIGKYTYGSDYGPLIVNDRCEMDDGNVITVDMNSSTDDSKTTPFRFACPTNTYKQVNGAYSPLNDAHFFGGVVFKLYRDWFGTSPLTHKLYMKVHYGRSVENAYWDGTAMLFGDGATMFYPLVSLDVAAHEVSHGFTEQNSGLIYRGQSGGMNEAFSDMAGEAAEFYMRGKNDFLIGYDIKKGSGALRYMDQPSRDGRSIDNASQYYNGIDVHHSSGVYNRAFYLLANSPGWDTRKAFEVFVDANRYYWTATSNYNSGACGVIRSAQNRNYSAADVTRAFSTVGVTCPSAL
T2 sequence (P14756 198-498): as above

Question: With `COc1cc2sc(CNC(=O)C3(CC(=O)O)Cc4ccccc4C3)nc2cc1OCCN(C)C` [Example 126, 2-(2-(((5-(2-(dimethylamino)ethoxy)-6-methoxybenzo[d]thiazol-2-yl)methyl)carbamoyl)-2,3-dihydro-1H-inden-2-yl)acetic acid] as the compound, how does the inhibition at 50 µM [1] read?
Answer: > 60%

Question: What about the Ki [2] of the same compound?
Answer: < 300 nM

Question: Which inhibition at 50 µM [1] does the source give for `O=C(O)CC1(C(=O)NCc2nc3ccc(OCCO)cc3s2)Cc2ccccc2C1` [Example 109, 2-[2-[[6-(2-hydroxyethoxy)-1,3-benzothiazol-2-yl]methylcarbamoyl]indan-2-yl]acetic acid] here?
Answer: > 60%

Question: What about the Ki [2] of the same compound?
Answer: < 300 nM
